Km data for 1 molecule are collected here from article PMC6300691, “Enhancement of Heat Stability and Kinetic Parameters of the Maize Endosperm ADP-Glucose Pyrophosphorylase by Mutagenesis of Amino Acids in the Small Subunit With High B Factors” (Frontiers in Plant Science, 2018).

The structures appear in SMILES notation. Numbering of substitutions follows the chain as printed.

Holding throughout (format): biochemical
For one test, the target named is T1, SH2-E (Zea mays, UniProt P55241+Q947C0, N131R/T142F/A160T/Q261S/A396S/V416I/C424V/S444A).
T1 construct: SH2-E with wild type BT2 (SH2-E/BT2-WT), E. coli, purified
T1 sequence (Q947C0 1-475): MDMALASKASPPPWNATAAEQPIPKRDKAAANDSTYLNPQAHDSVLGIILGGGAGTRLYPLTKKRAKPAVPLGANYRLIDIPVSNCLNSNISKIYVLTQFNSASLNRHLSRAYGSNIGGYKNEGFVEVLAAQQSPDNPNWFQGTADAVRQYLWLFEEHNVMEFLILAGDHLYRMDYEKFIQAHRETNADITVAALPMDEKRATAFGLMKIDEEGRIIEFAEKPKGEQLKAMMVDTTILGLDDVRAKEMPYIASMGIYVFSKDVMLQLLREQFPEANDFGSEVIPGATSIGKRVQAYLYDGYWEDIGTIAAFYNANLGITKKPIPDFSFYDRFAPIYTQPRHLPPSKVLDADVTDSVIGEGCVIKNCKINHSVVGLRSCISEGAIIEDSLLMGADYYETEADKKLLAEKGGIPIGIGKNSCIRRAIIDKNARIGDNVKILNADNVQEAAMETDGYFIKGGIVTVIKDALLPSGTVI
T1 sequence (P55241 46-516 N131R/T142F/A160T/Q261S/A396S/V416I/C424V/S444A): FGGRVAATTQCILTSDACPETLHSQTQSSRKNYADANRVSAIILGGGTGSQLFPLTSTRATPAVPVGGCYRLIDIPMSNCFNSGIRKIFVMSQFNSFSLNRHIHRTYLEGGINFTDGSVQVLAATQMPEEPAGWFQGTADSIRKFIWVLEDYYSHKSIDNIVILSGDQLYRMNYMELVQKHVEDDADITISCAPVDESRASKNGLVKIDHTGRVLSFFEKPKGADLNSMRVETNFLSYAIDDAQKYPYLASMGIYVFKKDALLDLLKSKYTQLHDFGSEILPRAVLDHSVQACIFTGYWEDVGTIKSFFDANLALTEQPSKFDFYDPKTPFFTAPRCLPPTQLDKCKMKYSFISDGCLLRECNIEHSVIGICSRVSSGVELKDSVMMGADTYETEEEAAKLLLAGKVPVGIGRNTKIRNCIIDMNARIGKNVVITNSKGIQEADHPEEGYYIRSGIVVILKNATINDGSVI
Kind of test: Pi inhibition study without 3-PGA, ATP varied (0.1-3 mM) at fixed Pi levels (10-30 mM) and sub-saturating G-1-P (1 mM), fit to mixed-type inhibition equations. The following applies: read-out: Km (mM), varied substrate ATP, Pi inhibition in the absence of 3-PGA.

A further test has as its target T2, D242H (Zea mays, UniProt P55241+Q947C0, D242H).
T2 construct: BT2 variant with wild type SH2, E. coli, purified
The test is described as follows: Initial-rate assay (PPi formation coupled to NADH oxidation) with varied ATP (0.05-3.0 mM) at 2.0 mM G-1-P, 2.5 mM 3-PGA, 15 mM MgCl2, 50 mM HEPES pH 7.4, hyperbolic fit. The following applies: read-out: KM ATP. From the text:
(§1) All saturation plots were hyperbolic. No cooperative effects were seen.

The target in a further test is T3, K403E (Zea mays, UniProt P55241+Q947C0, K403E).
T3 construct: BT2 variant with wild type SH2, E. coli, purified
The test is described as above. As to conditions: read-out: KM ATP.
Description: as §1

The next test has as its target T4, L404E (Zea mays, UniProt P55241+Q947C0, L404E).
T4 construct: BT2 variant with wild type SH2, E. coli, purified
Described as above. The following applies: read-out: KM ATP.
Description: as §1

The target in a further test is T5, E123G, R331K (Zea mays, UniProt P55241+Q947C0, E123G/R331K).
T5 construct: BT2 variant with wild type SH2, E. coli, purified
The description is as above. The following applies: read-out: KM ATP.
Description: as §1

The target in test [1] is T6, E123G, R331K, K402R (BT2-BF) (Zea mays, UniProt P55241+Q947C0, E123G/R331K/K402R).
T6 construct: BT2-BF with wild type SH2 (SH2-WT/BT2-BF), E. coli, purified
T6 sequence (Q947C0 1-475 E123G/R331K/K402R): T1 sequence (Q947C0 1-475) with E123G, R331K, K402R
T6 sequence (P55241 46-516): T1 sequence (P55241 46-516 N131R/T142F/A160T/Q261S/A396S/V416I/C424V/S444A) with R86N, F97T, T115A, S216Q, S351A, I371V, V379C, A399S
The test is described as above. The following applies: read-out: KM ATP.
Description: as §1

The target of test [2] is T7, E123G, R331K, K402R, L404H (Zea mays, UniProt P55241+Q947C0, E123G/R331K/K402R/L404H).
T7 construct: BT2 quadruple variant with wild type SH2, E. coli, purified
The description is as above. As to conditions: read-out: KM ATP.
Description: as §1

For another test, the target named is T8, E123Q (Zea mays, UniProt P55241+Q947C0, E123Q).
T8 construct: BT2 variant with wild type SH2, E. coli, purified
The description is as above. As to conditions: read-out: KM ATP.
Description: as §1

The target of the next test is T9, L404H (Zea mays, UniProt P55241+Q947C0, L404H).
T9 construct: BT2 variant with wild type SH2, E. coli, purified
The description is as above. As to conditions: read-out: KM ATP.
Description: as §1

Another test deals with T10, R331K (Zea mays, UniProt P55241+Q947C0, R331K).
T10 construct: BT2 variant with wild type SH2, E. coli, purified
The description is as above. As to conditions: read-out: KM ATP.
Description: as §1

The target in a further test is T11, E123G, R331K, L404H (Zea mays, UniProt P55241+Q947C0, E123G/R331K/L404H).
T11 construct: BT2 variant with wild type SH2, E. coli, purified
The test is described as above. As to conditions: read-out: KM ATP.
Description: as §1

A further test addresses T12, R331P (Zea mays, UniProt P55241+Q947C0, R331P).
T12 construct: BT2 variant with wild type SH2, E. coli, purified
Described as above. As to conditions: read-out: KM ATP.
Description: as §1

T4 sequence (Q947C0 1-475 L404E): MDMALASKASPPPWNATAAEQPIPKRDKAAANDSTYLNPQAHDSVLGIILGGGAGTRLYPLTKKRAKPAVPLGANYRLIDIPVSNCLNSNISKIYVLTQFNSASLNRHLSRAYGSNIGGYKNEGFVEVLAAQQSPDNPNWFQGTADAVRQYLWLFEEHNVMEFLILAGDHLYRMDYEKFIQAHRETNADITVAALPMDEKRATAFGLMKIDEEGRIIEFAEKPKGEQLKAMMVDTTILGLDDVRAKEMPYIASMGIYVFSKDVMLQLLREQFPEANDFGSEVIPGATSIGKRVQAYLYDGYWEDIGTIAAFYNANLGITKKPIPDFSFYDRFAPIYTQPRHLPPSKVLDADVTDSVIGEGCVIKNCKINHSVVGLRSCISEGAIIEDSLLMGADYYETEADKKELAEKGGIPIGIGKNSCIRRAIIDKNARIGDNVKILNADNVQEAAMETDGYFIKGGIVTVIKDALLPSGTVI
T4 sequence (P55241 46-516, stated change not applied): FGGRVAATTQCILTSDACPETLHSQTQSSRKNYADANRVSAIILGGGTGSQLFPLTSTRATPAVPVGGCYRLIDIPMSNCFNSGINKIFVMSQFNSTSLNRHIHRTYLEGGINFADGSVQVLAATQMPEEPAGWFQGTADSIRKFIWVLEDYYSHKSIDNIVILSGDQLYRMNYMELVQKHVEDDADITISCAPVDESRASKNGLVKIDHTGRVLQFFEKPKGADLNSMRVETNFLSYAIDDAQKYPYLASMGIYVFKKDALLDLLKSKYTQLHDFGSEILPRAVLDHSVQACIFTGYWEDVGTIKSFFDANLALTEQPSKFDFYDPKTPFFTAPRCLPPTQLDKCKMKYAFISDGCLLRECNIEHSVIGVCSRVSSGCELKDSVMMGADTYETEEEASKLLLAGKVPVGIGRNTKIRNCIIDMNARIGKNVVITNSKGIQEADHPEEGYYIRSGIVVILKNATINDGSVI
T3 sequence (Q947C0 1-475 K403E): as the sequence (Q947C0 1-475 L404E) above, with K403E, E404L counted along it
T3 sequence (P55241 46-516): as the sequence (P55241 46-516, stated change not applied) above
T7 sequence (Q947C0 1-475 E123G/R331K/K402R/L404H): as the sequence (Q947C0 1-475 L404E) above, with E123G, R331K, K402R, E404H counted along it
T7 sequence (P55241 46-516, stated change not applied): as the sequence (P55241 46-516, stated change not applied) above
T11 sequence (Q947C0 1-475 E123G/R331K/L404H): as the sequence (Q947C0 1-475 L404E) above, with E123G, R331K, E404H counted along it
T11 sequence (P55241 46-516, stated change not applied): as the sequence (P55241 46-516, stated change not applied) above
T12 sequence (Q947C0 1-475 R331P): as the sequence (Q947C0 1-475 L404E) above, with R331P, E404L counted along it
T12 sequence (P55241 46-516): as the sequence (P55241 46-516, stated change not applied) above
T10 sequence (Q947C0 1-475 R331K): as the sequence (Q947C0 1-475 L404E) above, with R331K, E404L counted along it
T10 sequence (P55241 46-516): as the sequence (P55241 46-516, stated change not applied) above
T8 sequence (Q947C0 1-475 E123Q): as the sequence (Q947C0 1-475 L404E) above, with E123Q, E404L counted along it
T8 sequence (P55241 46-516): as the sequence (P55241 46-516, stated change not applied) above
T9 sequence (Q947C0 1-475 L404H): as the sequence (Q947C0 1-475 L404E) above, with E404H counted along it
T9 sequence (P55241 46-516, stated change not applied): as the sequence (P55241 46-516, stated change not applied) above
T2 sequence (Q947C0 1-475 D242H): as the sequence (Q947C0 1-475 L404E) above, with D242H, E404L counted along it
T2 sequence (P55241 46-516): as the sequence (P55241 46-516, stated change not applied) above
T5 sequence (Q947C0 1-475 E123G/R331K): as the sequence (Q947C0 1-475 L404E) above, with E123G, R331K, E404L counted along it
T5 sequence (P55241 46-516): as the sequence (P55241 46-516, stated change not applied) above
Description for SH2-E: Pi inhibition was carried out in both the presence and absence of 3-PGA with the Pi and substrate concentrations listed below.
Pi inhibition patterns in the presence and absence of 3PGA were also determined. Pi inhibition patterns were obtained by varying one substrate at several fixed concentrations of Pi, while holding the co-substrate at constant sub-saturating levels.

What is called Km is the concentration of substrate that gives half-maximal velocity. In the case of `Nc1ncnc2c1ncn2[C@@H]1O[C@H](COP(=O)(O)OP(=O)(O)OP(=O)(O)O)[C@@H](O)[C@H]1O` [ATP, adenosine 5'-triphosphate], the Michaelis-Menten constant (Km) at SH2-E is 0.97 ± 0.081 mM; on D242H it was 110 ± 16 µM; on K403E, 69 ± 12 µM; at L404E, 135 ± 47 µM; at E123G, R331K, 80 ± 5 µM; in test [1], 60 ± 7 µM. Further, the Km in [2] was 91 ± 8 µM; on E123Q, 52 ± 6 µM; on L404H it was 132 ± 22 µM; at R331K, 88 ± 13 µM; at E123G, R331K, L404H it was 67 ± 10 µM; on R331P, 97 ± 15 µM.
